Results on 24 molecules are retold here after patent US12590096B2, “Imidazo[2,1-f][1,2,4]triazin-4-amine as TLR8 agonists” (BeOne Medicines | GmbH, priority 2019, dated 2026).

In general, EC50 refers to the concentration giving half of the maximal effect.

The target in the first assay is T1, human TLR 8 protein in HEK-blue hTLR 8 tool cell line (Homo sapiens, UniProt Q9NR97).
T1 construct: expressed in transfected cells; host or cells: HEK293 (HEK-Blue hTLR8)
T1 sequence (Q9NR97 27-1041): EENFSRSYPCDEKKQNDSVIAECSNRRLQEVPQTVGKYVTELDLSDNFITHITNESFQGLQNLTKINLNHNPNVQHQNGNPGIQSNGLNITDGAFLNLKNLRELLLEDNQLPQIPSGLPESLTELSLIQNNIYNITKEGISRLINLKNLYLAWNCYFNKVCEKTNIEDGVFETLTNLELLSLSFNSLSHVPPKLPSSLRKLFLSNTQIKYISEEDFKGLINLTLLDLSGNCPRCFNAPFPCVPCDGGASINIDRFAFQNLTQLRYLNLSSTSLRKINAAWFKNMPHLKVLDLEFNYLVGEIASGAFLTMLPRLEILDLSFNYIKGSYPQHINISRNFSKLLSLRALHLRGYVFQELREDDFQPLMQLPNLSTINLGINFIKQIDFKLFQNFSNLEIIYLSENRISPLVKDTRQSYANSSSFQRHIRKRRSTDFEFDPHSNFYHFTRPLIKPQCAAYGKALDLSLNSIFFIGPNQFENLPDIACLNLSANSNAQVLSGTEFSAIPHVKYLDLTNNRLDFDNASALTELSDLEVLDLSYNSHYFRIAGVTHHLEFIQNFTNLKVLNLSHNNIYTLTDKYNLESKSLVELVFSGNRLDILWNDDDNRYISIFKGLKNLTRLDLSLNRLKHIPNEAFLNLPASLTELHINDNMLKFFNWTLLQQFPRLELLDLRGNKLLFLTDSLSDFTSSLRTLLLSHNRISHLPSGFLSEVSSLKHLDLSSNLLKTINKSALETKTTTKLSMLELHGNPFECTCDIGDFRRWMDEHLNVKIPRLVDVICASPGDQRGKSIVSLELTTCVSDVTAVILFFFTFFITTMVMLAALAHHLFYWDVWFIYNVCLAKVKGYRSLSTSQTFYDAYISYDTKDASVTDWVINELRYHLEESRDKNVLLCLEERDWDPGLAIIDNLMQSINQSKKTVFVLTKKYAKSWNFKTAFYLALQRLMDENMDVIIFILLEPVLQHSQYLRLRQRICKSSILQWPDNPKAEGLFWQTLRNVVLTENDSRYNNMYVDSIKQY
The experiment in a line: TLR8 stimulation determined by HEK-Blue Detection (NF-κB/SEAP reporter). The class given is cell-based. The note with it: HEK-Blue hTLR8 cells, 16 h incubation, relative to maximum activation by Resiquimod or motolimod; read-out: EC50 (nmol). The source says: TLR8 Stimulation Determined by HEK-Blue Detection
This assay was designed to study the stimulation of human TLR 8 protein in HEK-blue hTLR 8 tool cell line by monitoring the activation of NF-κB. HEK-blue hTLR8 cells were obtained by co-transfection of hTLR8 gene and optimized secretory embryonic alkaline phosphatase (SEAP) reporter gene into HEK293 cells. SEAP reporter gene was put under the control of […] minimal promoter fused with five NF-κB and AP-1-binding sites. NF-κB and AP-1 were activated by stimulation with TLR 8 ligand, thus inducing the expression of SEAP. The level of SEAP can be easily determined by HEK-Blue Detection (a cell culture medium that allows real-time detection of SEAP). HEK-Blue Detection comprises all nutrients needed for cell growth and specific SEAP color substrates. The hydrolysis of substrate by SEAP produces purple/blue color which can be measured by spectrophotometer.
When growing to 50-80% confluence, HEK-Blue hTLR7/8 cells were plated into 96-well plates (costar 3599) at a density of 40,000 cells/well. Then, the compound serially diluted at 10 points with a final concentration ranging from 1 nM to 10 μm in 0.1% DMSO/HEK-Blue Detection was added. The plates were then incubated in 5% CO2 at 37° C. for 16 h. Optical density at 620-655 nm was read on BMG PHERAstar FSX instrument. The EC50 of each compound was determined by calculating the maximum activation percentage identified using Resiquimod or motolimod.
The EC50 of the tested compound of the present invention is as follows.
Consider `CCCC(CO)Oc1nc(N)c2ncc(CC3CCNCC3)n2n1` (stereo not drawn) [Compound B34, 2-((4-amino-7-(piperidin-4-ylmethyl)imidazo[2,1-f][1,2,4]triazin-2-yl)oxy) pentan-1-ol], for which the EC50 was 0.225 µM.
`CCC[C@H](C)Oc1nc(N)c2ncc(C=C3CCNCC3)n2n1` [Compound B35, (S)-2-(pent-2-yloxy)-7-(piperidin-4-ylidenemethyl)imidazo[2,1-f][1,2,4]triazin-4-amine]: the EC50 came to 0.921 µM.
Take `CCCC(C)Oc1nc(N)c2ncc(CC3CCOCC3)n2n1` (stereo not drawn) [Compound B36, 2-(pent-2-yloxy)-7-((tetrahydro-2H-pyran-4-yl)methyl)imidazo[2,1-f][1,2,4]triazin-4-amine]: the EC50 is more than 10 µM.
The same measure, in the same setting: then `CCC[C@H](C)Oc1nc(N)c2ncc(NC3CCNCC3)n2n1` [Compound B37, (S)-2-(pent-2-yloxy)-N7-(piperidin-4-yl)imidazo[2,1-f][1,2,4]triazin-4,7-diamine], with more than 10 µM.
Still for that read-out and setting: then `CCC[C@H](C)Oc1nc(N)c2ncc(CC3CNC3)n2n1` [Compound B39, (S)-7-(azetidin-3-ylmethyl)-2-(pent-2-yloxy)imidazo[2,1-f][1,2,4]triazin-4-amine], with 0.127 µM; and `CCC[C@H](C)Oc1nc(N)c2ncc(CC34CC(N)(C3)C4)n2n1` [Compound B40, (S)-7-((3-aminobicyclo[1.1.1]pent-1-yl)methyl)-2-(pent-2-yloxy)imidazo[2,1-f][1,2,4]triazin-4-amine], with 1.01 µM.
As for `Cc1cc(COc2nc(N)c3ncc(CC4CCNCC4)n3n2)no1` [Compound B41, 2-((5-methylisoxazol-3-yl)methoxy)-7-(piperidin-4-ylmethyl)imidazo[2,1-f][1,2,4]triazin-4-amine], the EC50 was more than 10 µM.
Still for that read-out and setting: for `CCC[C@H](C)Oc1nc(N)c2ncc(CC3CCCN3)n2n1` (stereo partly drawn) [Compound B42, 2-(((S)-pent-2-yl)oxy)-7-(pyrrolidin-2-ylmethyl)imidazo[2,1-f][1,2,4]triazin-4-amine] the value was 0.036 µM; for `CCC[C@H](C)Oc1nc(N)c2ncc(CC3CCC4(CC3)CNC4)n2n1` [Compound B43, (S)-7-((2-azaspiro[3.5]non-7-yl)methyl)-2-(pent-2-yloxy)imidazo[2,1-f][1,2,4]triazin-4-amine], 0.024 µM.
On the same count and under the same terms, for `Cc1cnc(COc2nc(N)c3ncc(CC4CCNCC4)n3n2)s1` [Compound B44, 2-((5-methylthiazol-2-yl)methoxy)-7-(piperidin-4-ylmethyl)imidazo[2,1-f][1,2,4]triazin-4-amine] the value was more than 10 µM; for `CCCC(Cc1ccccc1)Oc1nc(N)c2ncc(CC3CCNCC3)n2n1` (stereo not drawn) [Compound B45, 2-((1-phenylpent-2-yl)oxy)-7-(piperidin-4-ylmethyl)imidazo[2,1-f][1,2,4]triazin-4-amine], 0.531 µM.
Still for that read-out and setting: for `Nc1nc(OCC2CCOC2)nn2c(CC3CCNCC3)cnc12` (stereo not drawn) [Compound B46, 7-(piperidin-4-ylmethyl)-2-((tetrahydrofuran-3-yl)methoxy)imidazo[2,1-f][1,2,4]triazin-4-amine] the value was more than 10 µM.
As to `CCCC(CCC)Oc1nc(N)c2ncc(CC3CCNCC3)n2n1` [Compound B47, 2-(hept-4-yloxy)-7-(piperidin-4-ylmethyl)imidazo[2,1-f][1,2,4]triazin-4-amine], the EC50 turned out to be 0.084 µM.
Same read-out and setting: for `CCC(CC)Oc1nc(N)c2ncc(CC3CCNCC3)n2n1` [Compound B48, 2-(pent-3-yloxy)-7-(piperidin-4-ylmethyl)imidazo[2,1-f][1,2,4]triazin-4-amine] the value was 0.0147 µM; for `CCC[C@H](CC)Oc1nc(N)c2ncc(CC3CCNCC3)n2n1` [Compound B49, (S)-2-(hex-3-yloxy)-7-(piperidin-4-ylmethyl)imidazo[2,1-f][1,2,4]triazin-4-amine], 0.0075 µM.
On the same count and under the same terms, then `CCC[C@H](C)Oc1nc(N)c2ncc(CC3CC4(CCNCC4)C3)n2n1` [Compound B50, (S)-7-((7-azaspiro[3.5]non-2-yl)methyl)-2-(pent-2-yloxy)imidazo[2,1-f][1,2,4]triazin-4-amine], with 0.209 µM; and `CCC[C@H](C)Oc1nc(N)c2ncc(CC3CCCCN3)n2n1` (stereo partly drawn) [Compound B51, 2-(((S)-pent-2-yl)oxy)-7-(piperidin-2-ylmethyl)imidazo[2,1-f][1,2,4]triazin-4-amine], with 0.41 µM.
Same read-out and setting: then `CCC[C@H](C)Oc1nc(N)c2ncc(CC3CCNCC3(C)C)n2n1` (stereo partly drawn) [Compound B53, 7-((3,3-dimethylpiperidin-4-yl)methyl)-2-(((S)-pent-2-yl)oxy)imidazol[2,1-f][1,2,4]triazin-4-amine], with 3.86 µM; and `CCC[C@H](C)Oc1nc(N)c2ncc(CC3CCN(CC(C)NC)CC3)n2n1` (stereo partly drawn) [Compound B54, 7-((1-(2-(methylamino)propyl)piperidin-4-yl)methyl)-2-(((S)-pent-2-yl)oxy)imidazo[2,1-f][1,2,4]triazin-4-amine], with 0.022 µM; and `CCC[C@H](C)Oc1nc(N)c2ncc(CC3CC4CCC(C3)N4)n2n1` (stereo partly drawn) [Compound B56, 7-((8-azabicyclo[3.2.1]oct-3-yl)methyl)-2-(((S)-pent-2-yl)oxy)imidazo[2,1-f][1,2,4]triazin-4-amine], with 1.92 µM.
Consider `CCC[C@H](C)Oc1nc(N)c2ncc(CC3CCNCC3C)n2n1` (stereo partly drawn) [Compound B60, 7-((3-methylpiperidin-4-yl)methyl)-2-(((S)-pent-2-yl)oxy)imidazo[2,1-f][1,2,4]triazin-4-amine], for which the EC50 was 0.917 µM.

The same assay, now with this note: HEK-Blue hTLR8 cells, 16 h incubation; unit μM; read-out: EC50.
`CCC[C@H](C)Oc1nc(N)c2ncc(/C=C3/CCNCC3(C)C)n2n1` [Compound B52, (S)-7-((3,3-dimethylpiperidin-4-ylidene)methyl)-2-(pent-2-yloxy)imidazo[2,1-f][1,2,4]triazin-4-amine]: the EC50 is more than 10 µM.
Still for that read-out and setting: for `CCC[C@H](C)Oc1nc(N)c2ncc(C=C3CC4CCC(C3)N4)n2n1` [Compound B55, 7-((8-azabicyclo[3.2.1]oct-3-ylene)methyl)-2-(((S)-pent-2-yl)oxy)imidazo[2,1-f][1,2,4]triazin-4-amine] the value was more than 10 µM; for `CCC[C@H](C)Oc1nc(N)c2ncc(CC3CCNCC3(F)F)n2n1` (stereo partly drawn) [Compound B57, 7-((3,3-difluorpiperidin-4-yl)methyl)-2-(((S)-pent-2-yl)oxy)imidazo[2,1-f][1,2,4]triazin-4-amine], more than 10 µM.
